Laboratory results reported in patent US20250255867A1 (Kadmon Corporation, LLC, priority 2022, published 2025).
Where two headings read alike, the source gives them in different places.

Assay: Example 1: plasma pharmacokinetics (Cmax, Tmax, AUC0-6 hr) of belumosudil and metabolites
Type: in vivo, human
Settings: for Tmax: human, oral, read-out: Time of the Maximum Observed Plasma Concentration (Tmax), Median (Full Range); for Maximum Observed Plasma Concentration (Cmax), Geometric Mean (Geometric Coefficient of Variation) / Tmax: plasma
Procedure: Cmax was the maximum observed plasma concentration, obtained by a non-compartmental analysis. […] Timeframe: Cycles 1 and 2: pre-dose (0 hour), 1, 2, 3, 4, 5, and 6 hours post-dose on Day 1. […] Here, ‘number analyzed’=participants with available data for each specified category.
Tmax was defined as time to reach maximum observed plasma concentration, obtained by a non-compartmental analysis. […] Timeframe: Cycles 1 and 2: pre-dose (0 hour), 1, 2, 3, 4, 5, and 6 hours post-dose on Day 1. Analysis was performed on PK population. Here, ‘number analyzed’=participants with available data for each specified category.
AUC0-6 hr was defined as area under the plasma concentration versus time curve from time 0 to 6 hours post-dose, obtained by a non-compartmental analysis from the concentration-time data. […] Timeframe: Cycles 1 and 2: pre-dose (0 hour), 1, 2, 3, 4, 5, and 6 hours post-dose on Day 1. Analysis was performed on PK population. Here, ‘number analyzed’=participants with available data for each specified category.

[1] = Cohort 1: Belumosudil 200 mg QD, Cycle 1 Day 1
[2] = Cohort 1: Belumosudil 200 mg QD, Cycle 2 Day 1
[3] = Cohort 2: Belumosudil 200 mg BID, Cycle 1 Day 1
[4] = Cohort 2: Belumosudil 200 mg BID, Cycle 2 Day 1
[5] = Cohort 3: Belumosudil 400 mg QD, Cycle 1 Day 1
[6] = Cohort 3: Belumosudil 400 mg QD, Cycle 2 Day 1

## CC(C)NC(=O)COc1cccc(-c2nc(Nc3ccc4[nH]ncc4c3)c3ccccc3n2)c1 [Belumosudil, 2-{3-[4-(1H-indazol-5-ylamino)-2-quinazolinyl]phenoxy}-N-(propan-2-yl) acetamide]
[1]
  Area Under the Plasma Concentration Versus Time Curve From Time 0 to 6 Hours Post-dose (AUC0-6 hr), Geometric Mean (Geometric Coefficient of Variation): 8350 hours*nanograms per milliliter
  Maximum Observed Plasma Concentration (Cmax), Geometric Mean (Geometric Coefficient of Variation): 2500 (60.1%) nanograms per milliliter
[2]
  Area Under the Plasma Concentration Versus Time Curve From Time 0 to 6 Hours Post-dose (AUC0-6 hr), Geometric Mean (Geometric Coefficient of Variation): 7090 (95.9%) hours*nanograms per milliliter
  Maximum Observed Plasma Concentration (Cmax), Geometric Mean (Geometric Coefficient of Variation): 2020 (101%) nanograms per milliliter
[3]
  Area Under the Plasma Concentration Versus Time Curve From Time 0 to 6 Hours Post-dose (AUC0-6 hr), Geometric Mean (Geometric Coefficient of Variation): 4960 hours*nanograms per milliliter
  Maximum Observed Plasma Concentration (Cmax), Geometric Mean (Geometric Coefficient of Variation): 1400 (98.5%) nanograms per milliliter
[4]
  Area Under the Plasma Concentration Versus Time Curve From Time 0 to 6 Hours Post-dose (AUC0-6 hr), Geometric Mean (Geometric Coefficient of Variation): 7190 (115%) hours*nanograms per milliliter
  Maximum Observed Plasma Concentration (Cmax), Geometric Mean (Geometric Coefficient of Variation): 1890 (120%) nanograms per milliliter
[5]
  Area Under the Plasma Concentration Versus Time Curve From Time 0 to 6 Hours Post-dose (AUC0-6 hr), Geometric Mean (Geometric Coefficient of Variation): 11500 hours*nanograms per milliliter
  Maximum Observed Plasma Concentration (Cmax), Geometric Mean (Geometric Coefficient of Variation): 2960 (69.7%) nanograms per milliliter
[6]
  Area Under the Plasma Concentration Versus Time Curve From Time 0 to 6 Hours Post-dose (AUC0-6 hr), Geometric Mean (Geometric Coefficient of Variation): 12000 hours*nanograms per milliliter
  Maximum Observed Plasma Concentration (Cmax), Geometric Mean (Geometric Coefficient of Variation): 3270 (63.0%) nanograms per milliliter
200 mg, Cohort 1: Belumosudil 200 mg QD, Cycle 1 Day 1
  Tmax: 2.12 h
200 mg, Cohort 1: Belumosudil 200 mg QD, Cycle 2 Day 1
  Tmax: 2.53 h
200 mg, Cohort 2: Belumosudil 200 mg BID, Cycle 1 Day 1
  Tmax: 3.43 h
200 mg, Cohort 2: Belumosudil 200 mg BID, Cycle 2 Day 1
  Tmax: 2.47 h
400 mg, Cohort 3: Belumosudil 400 mg QD, Cycle 1 Day 1
  Tmax: 3.03 h
400 mg, Cohort 3: Belumosudil 400 mg QD, Cycle 2 Day 1
  Tmax: 2.66 h
